One data set concerns the target T1, AtPHT4;4 (Arabidopsis thaliana, UniProt Q8GX78).
T1 construct: gene PHT4; cDNA from ATG; His-tag and soluble alpha-helix protein (beta) at both ends, beta-pET-28a(+)-beta; E. coli C43(DE3); purified by Ni-NTA; proteoliposomes
T1 sequence (Q8GX78 1-541): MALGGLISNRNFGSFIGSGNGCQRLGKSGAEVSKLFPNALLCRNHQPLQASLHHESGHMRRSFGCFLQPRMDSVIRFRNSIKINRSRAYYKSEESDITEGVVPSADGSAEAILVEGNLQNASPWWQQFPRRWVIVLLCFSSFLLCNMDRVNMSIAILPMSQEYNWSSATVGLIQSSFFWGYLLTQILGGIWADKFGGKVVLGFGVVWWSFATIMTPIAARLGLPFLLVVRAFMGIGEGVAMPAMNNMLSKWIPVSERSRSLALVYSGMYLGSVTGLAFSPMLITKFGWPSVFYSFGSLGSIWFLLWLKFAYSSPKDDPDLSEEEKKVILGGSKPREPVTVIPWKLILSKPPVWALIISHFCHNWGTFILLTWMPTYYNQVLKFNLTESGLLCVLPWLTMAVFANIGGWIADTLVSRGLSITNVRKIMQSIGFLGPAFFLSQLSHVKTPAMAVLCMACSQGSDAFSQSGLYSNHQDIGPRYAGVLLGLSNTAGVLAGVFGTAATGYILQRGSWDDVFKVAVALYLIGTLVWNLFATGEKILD
Briefly: inhibition of […]-ascorbate uptake into proteoliposomes, […] min. The data set is classed as biochemical. To be noted: 1 and 10 μM inhibitor; 100 μM ascorbate; 2 μM valinomycin; pH 7.0; 27 °C.

The next data set deals with T2, AtPHT4;6 (Arabidopsis thaliana, UniProt Q9FKV1).
T2 construct: gene ANTR5
T2 sequence (Q9FKV1 whole entry): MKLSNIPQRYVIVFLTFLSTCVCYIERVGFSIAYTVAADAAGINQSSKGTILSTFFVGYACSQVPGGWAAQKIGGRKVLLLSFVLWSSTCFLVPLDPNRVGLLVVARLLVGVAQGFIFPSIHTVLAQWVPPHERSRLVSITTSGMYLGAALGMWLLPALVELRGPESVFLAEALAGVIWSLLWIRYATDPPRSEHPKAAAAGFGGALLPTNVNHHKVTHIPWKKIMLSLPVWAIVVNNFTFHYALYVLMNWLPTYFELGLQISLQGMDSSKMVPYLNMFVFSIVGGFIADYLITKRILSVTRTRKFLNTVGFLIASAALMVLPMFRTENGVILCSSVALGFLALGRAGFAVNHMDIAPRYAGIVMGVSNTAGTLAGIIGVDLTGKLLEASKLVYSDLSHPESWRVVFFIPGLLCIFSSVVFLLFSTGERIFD
Particulars: labelled compound (32P); 100 μM phosphate; 0.1 M sodium acetate; pH 7.0.

The next data set has as its target T3, AtPHT4;5 (Arabidopsis thaliana, UniProt Q3E9A0).
T3 construct: gene ANTR6
Particulars: labelled compound (32P); 100 μM phosphate; 0.1 M sodium acetate; pH 7.0.

In the next data set the target is T4, AtPHT4;3 (Arabidopsis thaliana, UniProt Q66GI9).
T4 construct: gene ANTR4
T4 sequence (Q66GI9 whole entry): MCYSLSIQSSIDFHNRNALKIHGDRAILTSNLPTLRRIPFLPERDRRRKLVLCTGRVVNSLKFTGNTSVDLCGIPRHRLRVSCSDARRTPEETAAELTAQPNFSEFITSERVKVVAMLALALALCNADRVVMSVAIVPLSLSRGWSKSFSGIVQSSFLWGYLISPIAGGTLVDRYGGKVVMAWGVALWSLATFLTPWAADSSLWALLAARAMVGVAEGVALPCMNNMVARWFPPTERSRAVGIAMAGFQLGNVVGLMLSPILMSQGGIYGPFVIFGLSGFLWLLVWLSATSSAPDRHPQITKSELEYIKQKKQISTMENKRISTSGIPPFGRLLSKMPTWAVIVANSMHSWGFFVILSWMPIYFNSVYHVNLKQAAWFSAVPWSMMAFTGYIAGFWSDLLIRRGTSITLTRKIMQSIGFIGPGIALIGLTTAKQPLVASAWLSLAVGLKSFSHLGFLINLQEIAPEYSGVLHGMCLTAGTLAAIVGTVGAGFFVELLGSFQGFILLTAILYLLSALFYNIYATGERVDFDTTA
To be noted: labelled compound (32P); 100 μM phosphate; 0.1 M sodium acetate; pH 7.0.

Substrate in the data set “purified protein”: O=C1O[C@H]([C@@H](O)CO)C(O)=C1O
Nature of the data set: purified protein. To be noted: labelled compound (14C), valinomycin-induced inside-positive membrane potential, 4 mM KCl, pH 7.0, 27 °C.

T3 sequence (Q3E9A0 whole entry): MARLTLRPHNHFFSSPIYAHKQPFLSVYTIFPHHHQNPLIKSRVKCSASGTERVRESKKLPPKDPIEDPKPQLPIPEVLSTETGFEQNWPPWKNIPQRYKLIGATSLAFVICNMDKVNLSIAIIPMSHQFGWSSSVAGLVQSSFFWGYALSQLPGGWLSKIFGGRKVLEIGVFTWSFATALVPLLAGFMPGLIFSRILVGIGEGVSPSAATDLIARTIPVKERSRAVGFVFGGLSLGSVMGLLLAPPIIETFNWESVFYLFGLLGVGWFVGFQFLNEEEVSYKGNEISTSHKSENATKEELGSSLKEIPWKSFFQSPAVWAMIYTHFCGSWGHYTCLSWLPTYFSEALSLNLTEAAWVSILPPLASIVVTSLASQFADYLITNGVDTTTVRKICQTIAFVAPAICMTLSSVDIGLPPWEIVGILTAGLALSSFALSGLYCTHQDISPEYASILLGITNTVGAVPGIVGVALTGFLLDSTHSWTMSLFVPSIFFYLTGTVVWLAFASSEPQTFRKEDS

For `O=S(=O)(O)c1cc(N=C=S)ccc1/C=C/c1ccc(N=C=S)cc1S(=O)(=O)O` [4,4′-diisothiocyano-2,2′-stilbenedisulphonic acid], the “inhibition of 14C-ascorbate uptake into proteoliposomes, 1 min” value at AtPHT4;4 is reported as “typical inhibitors of mammalian SLC17 family transporters, inhibited ascorbate uptake”. For `Cc1cc(-c2ccc(/N=N/c3ccc4c(S(=O)(=O)O)cc(S(=O)(=O)O)c(N)c4c3O)c(C)c2)ccc1/N=N/c1ccc2c(S(=O)(=O)O)cc(S(=O)(=O)O)c(N)c2c1O` [Evans blue], the “inhibition of 14C-ascorbate uptake into proteoliposomes, 1 min” value against AtPHT4;4 is “typical inhibitors of mammalian SLC17 family transporters, inhibited ascorbate uptake”. Turning to `O=P(O)(O)O` [inorganic phosphate], the “Na+-driven 32P-phosphate uptake into proteoliposomes, 2 min” value on AtPHT4;6, on AtPHT4;5 and at AtPHT4;3 was “Na^+/Pi transport activity was detected in proteoliposomes containing all of these transporters” throughout.

B1: AtPHT4;4 (Arabidopsis thaliana) (protein)
chain: MALGGLISNRNFGSFIGSGNGCQRLGKSGAEVSKLFPNALLCRNHQPLQASLHHESGHMRRSFGCFLQPRMDSVIRFRNSIKINRSRAYYKSEESDITEGVVPSADGSAEAILVEGNLQNASPWWQQFPRRWVIVLLCFSSFLLCNMDRVNMSIAILPMSQEYNWSSATVGLIQSSFFWGYLLTQILGGIWADKFGGKVVLGFGVVWWSFATIMTPIAARLGLPFLLVVRAFMGIGEGVAMPAMNNMLSKWIPVSERSRSLALVYSGMYLGSVTGLAFSPMLITKFGWPSVFYSFGSLGSIWFLLWLKFAYSSPKDDPDLSEEEKKVILGGSKPREPVTVIPWKLILSKPPVWALIISHFCHNWGTFILLTWMPTYYNQVLKFNLTESGLLCVLPWLTMAVFANIGGWIADTLVSRGLSITNVRKIMQSIGFLGPAFFLSQLSHVKTPAMAVLCMACSQGSDAFSQSGLYSNHQDIGPRYAGVLLGLSNTAGVLAGVFGTAATGYILQRGSWDDVFKVAVALYLIGTLVWNLFATGEKILD
For the molecule B1, the Km in “purified protein” was determined as 1200 µM.

As usually defined, the Km is the substrate concentration at which the rate is half of its maximum.

The values above are taken from PMC4308718 (Nature Communications, 2015).
